Data reported in US11567074B2, “Methods for identifying proteins that bind ligands” (University of Pittsburgh—Of the Commonwealth System of …, priority 2016, dated 2023).
Several values for one entry are separate records, joined by “and”; a condition that tells them apart may be missing. Equal entries are not always repeated. Entries after “also recorded” stand apart in the source; their conditions may differ.

Assays:
[1] = system: tumor cells including cisplatin resistant ovarian cancers cells; conditions: wide range of tumor cells incl. cisplatin resistant ovarian cancer cells; cited from earlier work
[2] = target: T1, β-actin (Homo sapiens, UniProt P60709); assay: Western blot thermal shift (CETSA) in a2780cis lysate, β-actin control; format: binding; conditions: 20 μM mdivi-1, a2780cis cytoplasmic lysate, control protein
T1 construct: Lysates of A2780cis cells were prepared identically as DISRUPT experiments outlined above; endogenous in cells; host or cells: a2780cis cells, cleared lysate
Method: (§1) Protein quantification by western blot was employed to confirm the relative abundance of DPP3 remaining in solution following treatment with mdivi-1, heating and centrifugation. Cytoplasmic lysates from a2780cis ovarian cancer cells were treated with 20 μM mdivi-1 of and heated to 44° C., 48° C., 52° C., 56° C., and 60° C., in singlicate; the western blot is shown in FIG. 9D. β-actin was used as a control blot to show an unchanging […] intensity as a function of temperature. […] DPP3 activity was measured using a polypeptide cleavage assay that measures a decrease in fluorescence due to the removal of an n-terminal bound fluorophore. Fluorescence was measured as a function of dose, as shown in FIG. 9E; the control and quench assays for the functional assay are shown in FIG. 9D.
(§2) The lysate stock was placed on ice until thawed.
(§3) Lysates of A2780cis cells were prepared identically as DISRUPT experiments outlined above. The soluble protein was separated on Tris-glycine gels (Invitrogen). The separated proteins were blotted onto a polyvinylidene difluoride (PVDF) membrane and non-specific binding was blocked overnight at 4° C. in phosphate-buffered saline containing 0.1% Tween 20 and 10% nonfat dry milk (blocking buffer). Membranes were incubated with primary antibodies, DPP3 (GeneTex), Drpl (BD Biosciences), and β-actin (Sigma-Aldrich), in blocking buffer overnight at 4° C. […]

[3] = target: T2, DPP3 (Homo sapiens, UniProt Q9NY33); assay: DPP3 activity assay (fluorogenic polypeptide cleavage); format: biochemical; parameters: purchased BPS Bioscience 80203; conditions: IC50 upon DPP3 activity, purified recombinant DPP3, substrate Arg2-AMC, fluorescence as a function of dose
T2 sequence (Q9NY33 1-737): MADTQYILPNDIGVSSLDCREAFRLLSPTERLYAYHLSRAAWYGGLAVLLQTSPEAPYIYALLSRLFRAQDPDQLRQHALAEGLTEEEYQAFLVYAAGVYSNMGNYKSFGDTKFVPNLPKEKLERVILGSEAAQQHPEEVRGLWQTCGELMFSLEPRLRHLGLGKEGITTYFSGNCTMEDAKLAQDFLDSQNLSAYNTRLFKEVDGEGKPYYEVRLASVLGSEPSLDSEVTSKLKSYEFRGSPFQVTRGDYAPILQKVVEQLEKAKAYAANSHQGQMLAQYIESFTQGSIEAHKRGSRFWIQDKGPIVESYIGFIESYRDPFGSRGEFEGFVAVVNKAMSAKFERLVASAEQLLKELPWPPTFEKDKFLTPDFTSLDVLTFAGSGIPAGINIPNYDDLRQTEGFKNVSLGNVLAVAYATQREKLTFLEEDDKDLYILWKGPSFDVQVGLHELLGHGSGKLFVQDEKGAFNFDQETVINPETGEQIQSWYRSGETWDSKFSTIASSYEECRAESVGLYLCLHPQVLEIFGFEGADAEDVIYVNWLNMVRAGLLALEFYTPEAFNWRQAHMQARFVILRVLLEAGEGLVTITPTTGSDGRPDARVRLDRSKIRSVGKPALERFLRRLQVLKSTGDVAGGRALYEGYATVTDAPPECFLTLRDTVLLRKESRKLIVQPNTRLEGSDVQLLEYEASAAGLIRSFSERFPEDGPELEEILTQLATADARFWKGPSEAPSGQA
Method: as §1
The inhibition of DPP3 peptidase activity by mdivi-1 was evaluated using a commercially available fluorogenic DPP3 Assay Kit (catalog number 80203, BPS Bioscience, San Diego Calif.) that contains purified recombinant DPP3 protein and DPP3 substrate Arg2-AMC. The fluorescence intensity was measured using a microplate reader, Synergy 2 (BioTek instruments).

[4] = target: T3, dipeptidyl peptidase 3 (DPP3) (Homo sapiens, UniProt Q9NY33); assay: DISRUPT label-free differential mass spectrometry, a2780cis lysate; format: binding; conditions: 20 μM mdivi-1, a2780cis lysate, 56° C. for ten minutes, n=6 per condition
T3 construct: endogenous in cells; host or cells: a2780cis cells (Sigma Aldrich), cleared freeze-thaw lysate
T3 sequence (Q9NY33 1-737): T2 sequence (Q9NY33 1-737)
Method: Equal aliquots of a2780cis cells were treated with 20 μM mdivi-1 and DMSO respectively, split into six technical replicates per condition, and heated to 56° C. for ten minutes to stimulate differential agglutination of drug-bound and unbound proteins. […] Data-dependent MS/MS data was analyzed and results in the identification of 35,369 features linked to 5488 unique peptides sequences that were associated with 947 proteins. Features […] having non-zero intensity values in at least four of six samples per condition were selected, and a Student's t-test was applied to compute a p value for each feature, and a volcano plot was created to show the distribution of features as a function of fold change and significance, as shown in the volcano plot in FIG. 7A. Two of the significant features were identified as peptide […] (SEQ ID NO: 2) deriving from dipeptidyl peptidase 3, DPP3, using MS/MS spectra acquired during the initial dMS experiment. The 6 remaining highly significant features were identified as peptides […] (SEQ ID NO: 6), […] (SEQ ID NO: 4), and […] (SEQ ID NO: 1) that are specific to the protein sequence for DPP3, using MS/MS spectra acquired in subsequent analyses.
as §2
Samples were denatured and digested utilizing the FASP method described by Wisniewski et al. (2009) and Manza et al. (2005). […]

[5] = target: T2, DPP3; assay: Western blot thermal shift (CETSA) in a2780cis lysate, DPP3; format: binding; parameters: endogenous in cells; host or cells: a2780cis cells (Sigma Aldrich), cleared freeze-thaw lysate; conditions: 20 μM mdivi-1, a2780cis cytoplasmic lysate, 44-60° C., vs vehicle
Method: as §1, §2, §3

[6] = target: T4, DRP1 (Homo sapiens, UniProt O00429); assay: Western blot thermal shift (CETSA) in a2780cis lysate, DRP1; format: binding; conditions: 20 μM mdivi-1, a2780cis cytoplasmic lysate, 44-60° C., vs vehicle
T4 construct: Lysates of A2780cis cells were prepared identically as DISRUPT experiments outlined above; endogenous in cells; host or cells: a2780cis cells, cleared lysate
Method: as §1, §2, §3

[7] = target: T5, Huntingtin-interacting protein K, HYPK (Homo sapiens, UniProt Q9NX55); assay: DISRUPT label-free differential mass spectrometry, K562 lysate, HYPK; format: binding; conditions: 2 μM staurosporine, 56° C. for ten minutes, n=10 per condition
T5 construct: endogenous in cells; host or cells: K562 cells (ATCC), cleared lysate in kinase buffer
T5 sequence (Q9NX55 1-121): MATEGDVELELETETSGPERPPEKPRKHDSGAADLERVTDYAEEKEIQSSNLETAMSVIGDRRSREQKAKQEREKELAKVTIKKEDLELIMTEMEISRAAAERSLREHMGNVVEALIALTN
Method: Samples were heated to 56° C. for ten minutes to stimulate protein agglutination (protein clumping) and agglutinated proteins were removed from solution by centrifugation at 20,000 g.
To measure the relative abundance of proteins in solution, lysates were subjected to tryptic digestion, desalting and quantitative proteomic analysis. Peptide samples were separated by reversed phase C18 nanoflow liquid chromatography (nLC), ionized by electrospray ionization, and analyzed with a hybrid ion trap/high-resolution Fourier transform mass spectrometer. […] To enhance the quantification of the vast number of molecular features present in high-resolution data, the acquisition of full-scan MS spectra were prioritized over the collection of MS/MS spectra that are used for peptide identification, resulting in approximately 10 quantitative measurements per chromatographic peak.
Samples were analyzed in a balanced run order to compensate for drifts in mass spectrometry response that occurs as a function of time. Each sample was analyzed once and the resulting data file was uploaded to a cloud-based data analysis platform, CHORUS (www.chorusproject.org), that was developed to support the efficient analysis of high-resolution mass spectrometry data. Label-free differential mass spectrometry (dMS) was used to quantify hundreds of thousands of features detected by nLC-MS analysis. […]

T4 sequence (O00429 whole entry): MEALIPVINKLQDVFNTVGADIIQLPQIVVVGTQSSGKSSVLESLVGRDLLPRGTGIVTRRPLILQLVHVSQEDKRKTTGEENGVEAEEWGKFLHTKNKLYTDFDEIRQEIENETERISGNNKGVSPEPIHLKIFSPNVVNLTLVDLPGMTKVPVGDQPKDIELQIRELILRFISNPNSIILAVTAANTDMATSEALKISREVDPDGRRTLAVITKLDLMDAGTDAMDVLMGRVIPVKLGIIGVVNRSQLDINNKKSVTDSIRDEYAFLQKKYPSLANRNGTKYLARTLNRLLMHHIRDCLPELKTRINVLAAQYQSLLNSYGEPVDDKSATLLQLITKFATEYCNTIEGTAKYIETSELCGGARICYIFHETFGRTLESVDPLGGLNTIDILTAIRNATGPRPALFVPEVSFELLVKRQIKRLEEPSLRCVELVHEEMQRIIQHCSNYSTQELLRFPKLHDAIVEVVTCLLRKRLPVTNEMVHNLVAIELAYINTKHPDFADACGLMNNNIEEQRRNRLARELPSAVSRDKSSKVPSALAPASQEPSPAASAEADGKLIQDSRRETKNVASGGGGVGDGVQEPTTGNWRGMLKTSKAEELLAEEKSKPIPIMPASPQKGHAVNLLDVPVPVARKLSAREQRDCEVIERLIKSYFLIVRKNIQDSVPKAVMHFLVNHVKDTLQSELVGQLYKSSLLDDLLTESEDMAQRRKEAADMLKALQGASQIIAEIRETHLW

Structure (SMILES): COc1cc(-n2c(S)nc3ccccc3c2=O)c(Cl)cc1Cl [mdivi-1]
- killing of tumor cells [1]: robust killing
- thermal shift of β-actin (western blot) [2]: no shifts were observed
- IC50 [3]: ~70 nM and 70 nM
- DISRUPT ranking / significant features of DPP3 [4]: eight DPP3 peptides from 18 features were significant; also recorded: top putative target
- thermal shift of DPP3 (protein remaining in solution, western blot) [5]: remained in solution at 52 °C and 56 °C at higher levels compared to vehicle treated controls; also recorded: a strong shift was seen for DPP3
- thermal shift of DRP1 (western blot) [6]: no evidence of a thermal shift; also recorded: no shifts were observed

Structure (SMILES): CN[C@@H]1C[C@H]2O[C@@](C)([C@@H]1OC)n1c3ccccc3c3c4c(c5c6ccccc6n2c5c31)C(=O)NC4 [staurosporine]
- peptides identified among the 15 highly significant features (p<0.0001), HYPK [7]: one peptide
